The source of these data is patent US9861616B2, “Methods for treating respiratory diseases and formulations therefor” (priority 2013, dated 2018).

The test system of series [1] is B. cepacia strains from cystic fibrosis patients. The series can be described thus: Macrobroth dilution MICs, CF strains. The class given is cell-based. As to conditions: 2 B. cepacia strains from cystic fibrosis patients. Here is the method:
(§1) Two strains each of mucoid P. aeruginosa (both pyocyanin positive) and […] MRSA (only one strain with gold colonies) isolated from patients at a CF clinic were tested. Additionally, 2 B. cepacia strains were acquired, from Hershey Medical Center. All strains were identified by standard methods. Only one strain per patient was tested. MLVA was done on all strains to examine clonality, and confirmed that examination is not taking place on only one or a few clones. Strains will be stored in skim milk at −70° C. until use.
(§2) Original MICs of each strain to CEM-101 and other comparators were tested by CLSI microdilution methodology. Trays were obtained from Trek, Inc., Cleveland, Ohio. Time-kill macrobroth MIC dilution by CLSI was performed for all synergy testing.

The subject of series [2] is P. aeruginosa strains from cystic fibrosis patients. The series can be described thus: Macrobroth dilution MICs, CF strains. As to conditions: 2 P. aeruginosa strains from cystic fibrosis patients. It counts as cell-based. Here is the method:
as §1, §2

Series [3] can be described thus: Rodent ADME studies using radiolabeled CEM-101. As to conditions: IV 20 mg/kg. The class given is in vivo. Here is the method: This relationship was confirmed in rodent ADME studies using radiolabeled CEM-101. […] After IV dosing at 20 mg/kg, the data was more variable and lung/plasma ratios of 17.6 for males and 6.2 for females were observed.
Series [4] can be described thus: Plasma and ELF pharmacokinetics in healthy mice. It counts as in vivo. On the procedure: (§3) CEM-101 PK data were obtained from healthy mice administered single CEM-101 doses ranging from 0.625 to 40 mg/kg. Plasma and ELF were collected over 24 h (3 mice/time point) and assayed for CEM-101. Urea in plasma and ELF was used to correct ELF concentrations. Neutropenic mice infected with 10^8 CFU of 1 of 5 S. pneumoniae isolates via inhalation were administered daily CEM-101 doses (0.156 to 160 mg/kg) via oral gavage. Dose-fractionation was performed for 1 isolate; CEM-101 was administered to the other 4 isolates as a Q6h or Q12h regimen. PK and PK-PD were evaluated using S-ADAPT 1.56.
(§4) A 3-compartment model with a parallel first-order and capacity-limited clearance and a capacity-limited first pass effect with fitted lag-times best described the plasma and ELF data (r2=0.98 and 0.83 for observed vs fitted concentrations, respectively). ELF to total- and free-drug (f) plasma (based on protein binding of 91.8% in mice) AUC0-24 ratios were 0.22 and 2.7, respectively. ELF and f plasma AUC0-24:MIC ratios were most predictive of efficacy (r2=0.85 for ELF and f plasma). […] AUC0-24:MIC ratio was the PK-PD index most predictive of efficacy for CEM-101. PK-PD targets based on these relationships will inform dose selection for future clinical studies.

Series [5] deals with S. pneumoniae. Kind of series: PK-PD analysis in neutropenic murine-lung infection model. It counts as in vivo. As to conditions: neutropenic mice. Here is the method:
Using a murine-lung infection model, epithelial lining fluid (ELF) and plasma PK-PD measures most closely associated with CEM-101 efficacy against S. pneumoniae and targets based on PK-PD relationships for such indices were identified.
as §3

Series [6] in a line: Protein binding. As to conditions: mice. It counts as in vitro ADME.
Source text: as §4

A short description of series [7]: Tissue distribution. It counts as in vivo. As to conditions: rat. On the procedure:
CEM-101 is well absorbed and distributed to the tissue. In the rat at 250 mg/kg/d, mean lung and liver concentrations 5 of CEM-101 were 17 and 15-fold higher than in plasma.

The subject of series [8] is MRSA SA 2230, SA 2232. Kind of series: Time-kill macrobroth MICs. The class given is cell-based, S. aureus. Here is the method: as §2
Two of the MRSA strains were chosen and tested for synergy, together with the 4 Gram-negative strains mentioned above. Broth macrodilution formed the basis of MICs used in time-kill experiments, as detailed below. The kill kinetics of each drug was tested alone by incubating an initial inoculum of 5×10^5 to 5×10^6 cfu/mL with drug concentrations at the MIC, three dilutions above and three dilutions below the MIC (½, ¼ and ⅛×MIC). Viability counts were performed after 0, 3, 6, 12 and 24 h incubation at 37° C. in a shaking water bath by plating onto trypticase soy-5% sheep blood agar plates.

The nature of series [9]: Intrapulmonary penetration into ELF and AM, Phase 1 clinical study. The class given is in vivo, healthy adult subjects. Particulars: 400 mg orally daily for 5 days, Day 5, 24 hour period. Here is the method: CEM-101 is evaluated for the treatment of patients with community-acquired bacterial pneumonia. The penetration of CEM-101 into the epithelial lining fluid (ELF) and alveolar macrophages (AM) is assessed in a Phase 1 clinical study.
30 subjects received 400 mg of CEM-101 orally daily for 5 days. On Day 5, each subject underwent a single bronchoscopy and bronchoalveolar lavage at 1 of 5 time points (3, 6, 9, 12 or 24 h post-dose) to obtain ELF and AM samples (6 subjects/time point). Plasma samples were collected pre-dose on Days 1 to 5 and serially post-dose on Day 5 and 6. The samples collected were assayed for CEM-101 using LC/MS/MS. Urea in the plasma and ELF was used to correct the ELF CEM-101 concentrations. Noncompartmental pharmacokinetic (PK) analysis using the median concentrations at each time point was used to calculate Day 5 AUC0-24. In addition, a population PK model (PPM) was used to determine Day 5 AUC0-24 for each subject in plasma and ELF. Intrapulmonary penetration of CEM-101 into the ELF and AM was determined by dividing the Day 5 AUC0-24 of each matrix by the Day 5 plasma AUC0-24.

Series [10] can be described thus: Tissue levels in repeat-dose toxicology studies. It counts as in vivo, rodents and non human primates. Particulars: repeated dosing.

Each structure is given as a SMILES string. A value given as a limit tells only on which side of the number the result lay.

In the case of `CC[C@H]1OC(=O)[C@@](C)(F)C(=O)[C@H](C)[C@@H](O[C@@H]2O[C@H](C)C[C@H](N(C)C)[C@H]2O)[C@](C)(OC)C[C@@H](C)C(=O)[C@H](C)[C@H]2N(CCCCn3cc(-c4cccc(N)c4)nn3)C(=O)O[C@]12C` [CEM-101, solithromycin], the “MIC Range” value in [1] lay in the range of 8 to 32 µg/mL. Moreover, the “MIC Range” value in [2] worked out at 64 µg/mL. Besides, the lung/plasma ratio in series [3] (females) is 6.2. Further, the lung/plasma ratio in series [3] (males) turned out to be 17.6. The “ELF to total-drug plasma AUC0-24 ratio” value in series [4] was 0.22. Moreover, in series [4] (based on protein binding of 91.8%), the “ELF to free-drug (f) plasma AUC0-24 ratio” value is reported as 2.7. In series [5], the “ELF AUC0-24:MIC ratio associated with 1-log 10 CFU reduction from baseline” value was 15.1, the “ELF AUC0-24:MIC ratio associated with 2-log 10 CFU reduction from baseline” value was determined as 59.8, the “ELF AUC0-24:MIC ratio associated with net bacterial stasis” value is reported as 1.26 and the “f plasma AUC0-24:MIC ratio associated with 1-log 10 CFU reduction from baseline” value was found to be 6.31. Further, in series [5], the “f plasma AUC0-24:MIC ratio associated with 2-log 10 CFU reduction from baseline” value was 12.8 and the “f plasma AUC0-24:MIC ratio associated with net bacterial stasis” value came out at 1.65. The compound further gave a protein binding in series [6] of 91.8%. For the same compound, in series [7], the “heart concentration relative to plasma” value is 5 fold. In series [7] (250 mg/kg/d), the “mean liver concentration relative to plasma” value was determined as 15 fold and the “mean lung concentration relative to plasma” value came to 17 fold. Further, in series [8] (strain SA 2230), the “Time-kill Macrobroth MIC” value amounted to 0.125 µg/mL. Also, in series [8] (strain SA 2232), the “Time-kill Macrobroth MIC” value came out at 0.125 µg/mL. Besides, in series [9], the “exposure in AM compared to plasma” value was above 180 times and the “exposure in ELF compared to plasma” value is above 8 times. Moreover, the “tissues with highest concentrations” value in series [10] is “highest in liver, spleen, lung, and salivary gland”.
